# According to US8058285B2, “Substituted pyrido [3′, 2′: 4, 5] thieno [3, 2-D] pyrimidines and pyrido [3′, 2′: 4, 5] furo [3, 2-D] pyrimidines used as inhibitors of the PDE-4 and/or the release of TNF-ALPHA” (The Medicines Company (Leipzig) GmbH, priority 2004, dated 2011):
# Experiments:
# PDE-4A = target: T1, PDE-4A (Homo sapiens, UniProt P27815); test: PDE-4A inhibitory assay (SPA); type: biochemical
# T1 construct: PDE-4A catalytic domain comprising amino acids 342-704; made in house; host or cells: Escherichia coli
# Method in brief: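 Human recombinant PDE-4A catalytic domain (aa 342-704), E. coli-expressed. SPA with 1 μM [^3H]-cAMP substrate in 100 mM Tris-HCl pH 7.5, 5 mM MgCl2, 1% DMSO; 20 min at 22° C. Non-specific activity with 100 μM rolipram subtracted.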
# TNFα release = test: LPS-induced TNFα release in diluted human blood (ELISA); type: cell-based; conditions: LPS 1 μg/ml, human blood diluted 1:5, 24 h; read-out: IC50 value in the TNFα inhibitory assay
# Text: Isolated leukocytes can be stimulated for the release of cytokines in different ways. Lipopolysaccharides (LPS) are a stimulus for the investigation of the TNFα release. LPS is part of bacterial cell walls and is released when the bacteria are killed (by antibiotics or the natural immune system). LPS stimulates in particular the activity of phagocytizing leukocytes (tissue macrophages, granulocytes, monocytes) and causes the infiltration of leukocytes from the peripheral blood into the affected tissue. A cytokine of special significance for these mechanisms is TNFα which is secreted in large amounts by the affected cells. The main source are here monocytes and macrophages. TNFα initiates and prolongs the inflammatory process in cooperation with other mediators.
# For the investigation of the effect on the LPS-induced TNFα release a method was used which was described by Marx, D., Tassabehji, M., Heer, S., Hüttenbrink, K.-B., and I. Szelenyi, Pulmonary Pharmacology & Therapeutics (2002) 15, 7-15. The method is briefly: Human blood was taken from various donors, rendered incoagulable by the addition of 10 mM Na citrate and diluted 1:5 with RPMI 1640 cell culture medium. The test substances were added to the blood samples at various concentrations. 15 min later, the leukocytes were stimulated by the addition of lipopolysaccharides (LPS) from Salmonella abortus equi at a final concentration of 1 μg/ml. After the incubation of the test batches at 37° C. and under 5% CO2 in a water-saturated air for 24 h, the blood was centrifuged and the TNFα concentration in the cell-free supernatant was accurately measured using a purchasable ELISA (BD Biosciences) according to the manufacturer's instructions.
# T1 sequence (P27815 342-704): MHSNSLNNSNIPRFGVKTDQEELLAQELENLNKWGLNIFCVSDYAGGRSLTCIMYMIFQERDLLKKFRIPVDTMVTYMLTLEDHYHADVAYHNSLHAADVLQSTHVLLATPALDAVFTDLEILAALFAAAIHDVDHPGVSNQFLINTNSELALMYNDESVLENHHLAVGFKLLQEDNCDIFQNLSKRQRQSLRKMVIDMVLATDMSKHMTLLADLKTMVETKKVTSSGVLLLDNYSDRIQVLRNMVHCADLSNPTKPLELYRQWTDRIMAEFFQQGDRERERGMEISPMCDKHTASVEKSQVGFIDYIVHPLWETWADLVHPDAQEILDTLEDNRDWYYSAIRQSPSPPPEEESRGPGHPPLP
melting point,IC50 (PDE-4A) [nM],IC50 (TNFα release) [nM],Structure (SMILES)
> 310 °C,–,–,"CCOc1nc(N2CCNCC2)c2sc3nc(-c4ccccc4)nc(C)c3c2n1 [Example 2, 2-ethoxy-9-methyl-4-piperazin-1-yl-7-phenyl-thieno[2,3-d:4,5-d′]dipyrimidine]"
> 300 °C,2 to 50,< 2000,"CCOc1nc(N2CCNCC2)nc2c1sc1nc(-c3ccc(C(O)CO)cc3)nc(C)c12 (stereo not drawn) [7-(4-[1,2-Dihydroxyethyl]-phenyl)-4-ethoxy-9-methyl-2-piperazin-1-yl-thieno[2,3-d:4,5-d′]dipyrimidine]"
190 °C (dec.),–,–,"CCS(=O)(=O)c1nc(N2CCNCC2)c2sc3nc(-c4ccccc4)cc(C)c3c2n1 [Example 15, 2-ethylsulfonyl-9-methyl-7-phenyl-4-piperazin-1-yl-pyrido-[3′,2′:4,5]thieno[3,2-d]pyrimidine]"
–,< 2,< 2000,"CCOc1nc(N2CCNCC2)nc2c1sc1nc(-c3ccc(-c4ccoc4)cc3)nc(C)c12 [4-Ethoxy-7-(4-[3-furyl]-phenyl)-9-methyl-2-piperazin-1-yl-thieno[2,3-d:4,5-d′]dipyrimidine]"
–,2 to 50,< 2000,"CCOc1nc(N2CCNCC2)nc2c1sc1nc(-c3ccccc3)cc(-c3ccccc3)c12 [4-Ethoxy-7,9-diphenyl-2-(piperazin-1-yl)-pyrido[3′,2′:4,5]thieno[3,2-d]pyrimidine]"
–,2 to 50,< 2000,"CCOc1nc(N2CCNCC2)nc2c1sc1nc(N3CCOCC3)cc(-c3ccccc3)c12 [4-Ethoxy-7-morpholino-9-phenyl-2-(piperazin-1-yl)-pyrido[3′,2′:4,5]thieno[3,2-d]pyrimidine]"
–,2 to 50,< 2000,"CCOc1nc(N2CCNCC2)c2sc3nc(-c4ccc(C(F)(F)F)cc4)cc(C)c3c2n1 [2-Ethoxy-7-(4-trifluoro-methyl-phenyl)-9-methyl-4-(piperazin-1-yl)-pyrido[3′,2′:4,5]thieno[3,2-d]pyrimidine]"
–,< 2,< 2000,"CCOc1nc(N2CCNCC2)nc2c1sc1nc(-c3ccc(NC(=O)c4cccnc4)cc3)cc(C(F)(F)F)c12 [N-(4-(4-Ethoxy-9-trifluoromethyl-2-piperazin-1-yl-pyrido[3′,2′:4,5]thieno[3,2-d]pyrimidin-7-yl)-phenyl)-nicotinamide]"
131 to 132 °C,2 to 50,–,"CCOc1nc(N2CCNCC2)nc2c1oc1nc(-c3ccccc3)cc(C)c12 [4-Ethoxy-7-phenyl-9-methyl-2-(piperazin-1-yl)-pyrido[3′,2′:4,5]furo[3,2-d]pyrimidine]"
–,2 to 50,< 2000,"CCOc1nc(N2CCNCC2)nc2c1sc1nc(-c3ccc(F)cc3)cc(C)c12 [4-Ethoxy-7-(4-fluoro-phenyl)-9-methyl-2-(piperazin-1-yl)-pyrido[3′,2′:4,5]thieno[3,2-d]pyrimidine]"
165 to 166 °C,2 to 50,–,"C=Cc1ccc(-c2nc(C)c3c(n2)sc2c(OCC)nc(N4CCNCC4)nc23)cc1 [4-Ethoxy-9-methyl-2-piperazin-1-yl-7-(4-vinyl-phenyl)-thieno[2,3-d:4,5-d′]dipyrimidine]"
–,< 2,< 2000,"CCOc1nc(N2CCNCC2)nc2c1sc1nc(-c3ccc(-c4cccc(N)c4)cc3)nc(C)c12 [7-(3′-Aminobiphen-4-yl)-4-ethoxy-9-methyl-2-piperazin-1-yl-thieno[2,3-d:4,5-d′]dipyrimidine]"
–,2 to 50,< 2000,"CCOc1nc(N2CCNCC2)nc2c1sc1nc(C)c(Cc3ccc([N+](=O)[O-])cc3)c(C)c12 [4-Ethoxy-7,9-dimethyl-8-(4-nitro-benzyl)-2-(piperazin-1-yl)-pyrido[3′,2′:4,5]thieno[3,2-d]pyrimidine]"
–,2 to 50,< 2000,"CCOc1nc(N2CCNCC2)nc2c1sc1nc(C)c(Cc3ccc(N)cc3)c(C)c12 [8-(4-Amino-benzyl)-4-ethoxy-7,9-dimethyl-2-(piperazin-1-yl)-pyrido[3′,2′:4,5]thieno[3,2-d]pyrimidine]"
–,2 to 50,< 2000,"CCOc1nc(N2CCNCC2)nc2c1sc1nc(-c3ccc[n+]([O-])c3)cc(C(F)(F)F)c12 [4-Ethoxy-7-(1-oxy-pyridin-3-yl)-2-(piperazin-1-yl)-9-trifluoromethyl-pyrido[3′,2′:4,5]thieno[3,2-d]pyrimidine]"
149 to 150 °C,–,–,"C/C=C/C=C/C(O)c1ccc(-c2nc(C)c3c(n2)sc2c(OCC)nc(N4CCNCC4)nc23)cc1 (stereo not drawn) [Example 6, 4-ethoxy-7-(4-[{2E,4E}-1-hydroxyhexa-2,4-dienyl]phenyl)-9-methyl-2-piperazin-1-yl-thieno[2,3-d:4,5-d′]dipyrimidine]"
–,< 2,< 2000,"CCOc1nc(N2CCNCC2)nc2c1sc1nc(-c3ccc(NC(=O)c4ccncc4)cc3)cc(C(F)(F)F)c12 [N-(4-(4-Ethoxy-9-trifluoromethyl-2-piperazin-1-yl-pyrido[3′,2′:4,5]thieno[3,2-d]pyrimidin-7-yl)-phenyl)-isonicotinamide]"
–,< 2,< 2000,"CCOc1nc(N2CCNCC2)nc2c1sc1nc(-c3ccc(-n4ccnc4)cc3)cc(C(F)(F)F)c12 [4-Ethoxy-7-(4-(1H-imidazol-1-yl)phenyl)-2-(piperazin-1-yl)-9-trifluoromethyl-pyrido[3′,2′:4,5]thieno[3,2-d]pyrimidine]"
175 °C,2 to 50,–,"CCOc1nc(N2CCNCC2)c2oc3nc(-c4ccccc4)cc(C)c3c2n1 [2-Ethoxy-7-phenyl-9-methyl-4-(piperazin-1-yl)-pyrido[3′,2′:4,5]furo[3,2-d]pyrimidine]"
–,2 to 50,< 2000,"CCOc1nc(N2CCNCC2)nc2c1sc1nc(-c3ccc(-c4cc[nH]c4)cc3)nc(C)c12 [4-Ethoxy-9-methyl-2-piperazin-1-yl-7-(4-[3-pyrrolyl]-phenyl)-thieno[2,3-d:4,5-d′]dipyrimidine]"
–,2 to 50,< 2000,"Cc1cc(-c2ccccc2)nc2sc3c(N4CCNCC4)nc(OCCO)nc3c12 [2-(2-Hydroxy-ethoxy)-9-methyl-7-phenyl-4-(piperazin-1-yl)-pyrido[3′,2′:4,5]thieno[3,2-d]pyrimidine]"
–,< 2,< 2000,"CCOc1nc(N2CCNCC2)nc2c1sc1nc(-c3ccc(NC=O)cc3)cc(C(F)(F)F)c12 [N-(4-(4-Ethoxy-9-trifluoromethyl-2-piperazin-1-yl-pyrido[3′,2′:4,5]thieno[3,2-d]pyrimidin-7-yl)-phenyl)-formamide]"
–,2 to 50,< 2000,"CCOc1nc(N2CCNCC2)nc2c1sc1nc(-c3ccc(OC)cc3)cc(C)c12 [4-Ethoxy-7-(4-methoxy-phenyl)-9-methyl-2-(piperazin-1-yl)-pyrido[3′,2′:4,5]thieno[3,2-d]pyrimidine]"
–,2 to 50,< 2000,"CCOc1nc(N2CCNCC2)nc2c1sc1nc(-c3cccnc3)cc(C(F)(F)F)c12 [4-Ethoxy-2-piperazin-1-yl-7-(3-pyridyl)-9-trifluoromethyl-pyrido[3′,2′:4,5]thieno[3,2-d]pyrimidine]"
–,< 2,< 2000,"CCOc1nc(N2CCNCC2)nc2c1sc1nc(-c3ccc(C(N)=NO)cc3)cc(C(F)(F)F)c12 [N′-Hydroxy-4-(4-ethoxy-9-trifluoromethyl-2-piperazin-1-yl-pyrido[3′,2′:4,5]thieno[3,2-d]pyrimidin-7-yl)-benzamidine bistrifluoroacetate]"
–,2 to 50,< 2000,"CCOc1nc(N2CCNCC2)nc2c1sc1nc(N3CCOCC3)c3c(c12)CCCC3 [8-Ethoxy-5-morpholino-10-piperazin-1-yl-pyrimido[4′,5′:4,5]thieno[2,3-c]-1,2,3,4-tetrahydro-isoquinoline]"
–,2 to 50,< 2000,"CCOc1nc(N2CCNCC2)c2sc3nc(C)c(Cc4ccc([N+](=O)[O-])cc4)c(C)c3c2n1 [2-Ethoxy-7,9-dimethyl-8-(4-nitro-benzyl)-4-(piperazin-1-yl)-pyrido[3′,2′:4,5]thieno[3,2-d]pyrimidine]"
150 to 154 °C,–,–,"CCSc1nc(N2CCNCC2)c2sc3nc(-c4ccccc4)cc(C)c3c2n1 [Example 13, 2-ethylthio-9-methyl-7-phenyl-4-piperazin-1-yl-pyrido-[3′,2′:4,5]thieno[3,2-d]pyrimidine]"
–,2 to 50,< 2000,"CCOc1nc(N2CCNCC2)nc2c1sc1nc(-c3ccncc3)cc(C(F)(F)F)c12 [4-Ethoxy-2-(piperazin-1-yl)-7-(4-pyridyl)-9-trifluoromethyl-pyrido[3′,2′:4,5]thieno[3,2-d]pyrimidine]"
–,2 to 50,< 2000,"CCOc1nc(N2CCNCC2)c2sc3nc(-c4ccc(OC)c(OC)c4)cc(C)c3c2n1 [2-Ethoxy-7-(3,4-dimethoxy-phenyl)-9-methyl-4-(piperazin-1-yl)-pyrido[3′,2′:4,5]thieno[3,2-d]pyrimidine]"
